Literature values as cited in patent publication US5043107A, “Preparation small unilamellar vesicles including polyene antifungal antibiotics” (Vestar Research, Inc., priority 1989, dated 1991).

Legend:
[1] = mammals; clinical use at therapeutic dose levels
[2] = Tremblay et al.
[3] = in vivo

Row | Molecule | toxicity [1] | acute 50% lethal dose (LD50) [2] | host toxicity [3]
1 | C[C@@H]1[C@H](O)[C@@H](C)/C=C/C=C/C=C/C=C/C=C/C=C/C=C/[C@H](O[C@@H]2O[C@H](C)[C@@H](O)[C@H](N)[C@@H]2O)C[C@@H]2O[C@](O)(C[C@@H](O)C[C@@H](O)[C@H](O)CC[C@@H](O)C[C@@H](O)CC(=O)O[C@H]1C)C[C@H](O)[C@H]2C(=O)O [Amphotericin B, amphotericin B] | acute hemolytic crisis and eventual kidney failure | 2.3 mg/kg | –
2 | liposomal Amphotericin B | – | – | decreased host toxicity
